Patent publication US8530455B2 (University of Medicine and Dentistry of New Jersey, priority 2009, dated 2013)

Columns and labels:
[1] = tested on: human citrated whole blood (CWB); experiment: Whole blood clotting time after recalcification (Amelung KC4A Micro, or instrument not named); assay type: cell-based
Description: Clotting time of whole blood enables the contribution of both the cellular elements (leukocytes, red blood cells, platelets) and plasma (the liquid sustaining the cellular components) to be evaluated. The citrate anticoagulated sample is brought to 37° (body temperature) and calcium ion is added to initiate the coagulation cascade. Many instruments are available to determine the time between calcium addition and the formation of the blood clot (clotting time). The time for this complex phenomenon to occur can be shorter than normal (hypercoagulable), within the normal range, and longer than normal (hypocoagulable state). Some disease states are characterized by hypercoagulable clotting states and include coronary artery disease, some cancer, diabetes, multiple sclerosis, stroke etc. The hypocoagulable states include hemophilia, and patients receiving anticoagulant therapies.
(§1) Human citrated whole blood (CWB) samples were gently inverted several times to ensure homogeneity and stored on ice to prevent protein denaturation. Ten microliters of physiologic saline was added to 490 μl of CWB (control), gently mixed, and incubated at 37° C. for 10 minutes. Coagulation was initiated by transferring 300 μl of blood sample to a cuvette containing 32 μl of 0.1 M CaCl2. After gently mixing the sample and ensuring no air bubble formations in the cuvette, the whole blood clotting times were recorded on an Amelung KC4A Micro Coagulation Analyzer (Sigma Diagnostics, St. Louis, Mo., USA), a device that uses the relative displacement of a magnetic bead due to fibrin formation to determine the clotting time. In addition, the Sonoclot Coagulation Analyzer (Sienco, Wheat Ridge, Colo., USA), a miniviscometer that is sensitive to fibrin polymer formation and fibrinolysis, was also employed to determine the whole blood clotting time. Both clinical instruments are FDA approved and used to evaluate blood coagulation processes at 37° C.
(§2) Clotting time values obtained within each study were evaluated by repeated measures analysis of variance (ANOVA) followed by Tukey-Kramer multiple comparison tests. All statistical analyses were assessed using two-sided paired Student t tests and significance was defined as p<0.05.

[2] = tested on: human citrated whole blood (CWB); experiment: Whole blood clotting time, Sonoclot Coagulation Analyzer; assay type: cell-based
Description: as §1, §2
In the previous experiments, the whole blood clotting times were measured using the Amelung KC4A Micro, an instrument approved by the FDA to measure blood coagulation processes. Another FDA approved instrument used to measure blood coagulation and fibrinolysis is the Sonoclot Coagulation Analyzer.

citrated whole blood = experiment: Glucose-accelerated clotting time (Diagnostica Stago ST4 and Sonoclot); assay type: cell-based, human; settings: for Glucose-accelerated clotting time: after 24 hours
Description: Citrated whole blood samples were obtained from the University Hospital's clinical laboratory with prior IRB approval. Samples were treated with different concentrations of glucose (6.0 mM, 9.0 mM, and 12.0 mM) to determine if a dose-response relationship existed between the glucose concentration and clotting time. Clotting times were then recorded using a Diagnostica Stago ST4 Coagulation Analyzer. […] The samples were incubated for 10 minutes prior to the addition of glucose (12.0 mM). After 24 hours, clotting times were recorded using a Diagnostica Stago ST4 and Sonoclot Coagulation Analyzer (FIG. 2). Results and Discussion

[3] = no refrigeration required; cited from earlier work
[4] = tested on: red blood cells in anticoagulated human blood; experiment: Erythrocyte Sedimentation Rate (ESR) in vitro; assay type: cell-based; settings: for ESR value: n=13
Excerpt: When anticoagulated blood is allowed to remain undisturbed in a long thin tube, the erythrocytes (red blood cells) begin to settle. The rate these cells settle may be a biomarker of the immune system status of the donor's blood. Many chronic diseases and those which create increased morbidity and mortality show increases (larger distance of settling) in ESR than age-matched healthy individuals. The ESR can also monitor the effects of therapeutics or procedures on the patient.
The ESR is the distance red blood cells settle in anticoagulated blood in one hour (mm/hr). These test results are elevated in many diseases that affect the immune system (infections, arthritis, cancer, heart diseases).

plasma = experiment: GDL dose response on plasma clotting time; assay type: biochemical; settings: GDL dose response curve in plasma

## Protamine sulfate [PS, reference compound]
[1]; 2 μg PS per mL CWB, n=8
  Mean Clotting Times: 294.26 ± 22.92 s
[1]; 0.2 Unit LMWH (dalteparin sodium) plus 2 μg PS per mL CWB, n=8
  Mean Clotting Times: 433.96 ± 56.96 s
[1]; 0.2 Unit UFH plus 2 μg PS per mL CWB, n=8
  Mean Clotting Times: 464.71 ± 42.83 s

## NCCc1c[nH]cn1 [histamine, reference compound]
[1]; Study III: 60 ng/ml histamine, 0 mg/ml GDL, n=8, control 264±38
  clotting time: 220 ± 39 s
[1]; Study IV: 1 μg/ml histamine, 0 mg/ml GDL, n=8, control 306±108
  clotting time: 253 ± 136 s
[1]; histamine 20 ng/ml, n=8, control 264±80
  clotting time: 257 ± 105 s
[1]; histamine 40 ng/ml, n=8
  clotting time: 240 ± 42 s
[1]; histamine 60 ng/ml, n=8
  clotting time: 235 ± 73 s
[1]; histamine 20 μg/ml, 10 minutes at 37°, n=9, control 300±72
  clotting time: 252 ± 61 s
[1]; histamine 40 μg/ml, 10 minutes at 37°, n=9
  clotting time: 230 ± 49 s
[1]; histamine 60 μg/ml, 10 minutes at 37°, n=9
  clotting time: 205 ± 71 s

## unfractionated heparin sodium [UFH, reference compound]
[1]; 0.2 Unit UFH per mL CWB, n=8
  Mean Clotting Times: 648.54 ± 55.31 s
[1]; 0.3 Unit UFH per mL CWB, n=5, control 246.56 ± 36.06
  Mean Clotting Times: 507.52 ± 85.26 s
[2]; 0.2 Unit UFH per mL CWB, n=16
  Mean Clotting Times: 677.25 ± 55.33 s

## O=C1O[C@H](CO)[C@@H](O)[C@H](O)[C@H]1O [GDL, glucono-delta-lactone]
Citrated whole blood; GDL 3 mg/ml and 4 mg/ml, glucose 12.0 mM
  effect of GDL on clotting time in the presence of excess glucose (FIG. 2): prolonging clotting time even in the presence of excess glucose
Citrated whole blood; glucose (12.0 mM) plus GDL 3 mg/ml
  Glucose-accelerated clotting time: 243 ± 70 s
Citrated whole blood; glucose (12.0 mM) plus GDL 4 mg/ml
  Glucose-accelerated clotting time: 334 ± 107 s
[1]; 2 μg GDL per mL CWB, n=8, control 264.38 ± 24.17
  Mean Clotting Times: 271.13 ± 24.83 s
[1]; 2.90 μg GDL/mL CWB, n=4, saline 254.08±27.37
  mean clotting time: 246.55±28.32
[1]; 23.00 μg GDL/mL CWB, n=4
  mean clotting time: 307.90±16.82
[1]; 184.00 μg GDL/mL CWB, n=4
  mean clotting time: 387.33±52.36
[1]; 1.48 mg GDL/mL CWB, n=4
  mean clotting time: 444.55±92.01
[1]; 11.8 mg GDL per mL CWB, n=16, control 252.25 ± 25.05
  Mean Clotting Times: 618.31 ± 71.81 s
[1]; 11.80 mg GDL/mL CWB, n=4
  mean clotting time: 687.37±51.23
[1]; 0.2% TF plus 11.8 mg GDL per mL CWB, n=16
  Mean Clotting Times: 418.44 ± 80.46 s
[1]; 0.2 Unit LMWH (dalteparin sodium) plus 2 μg GDL per mL CWB, n=8
  Mean Clotting Times: 456.15 ± 47.45 s
[1]; 0.2 Unit UFH plus 2 μg GDL per mL CWB, n=8
  Mean Clotting Times: 572.51 ± 45.94 s
[1]; 0.3 Unit LMWH (enoxaparin sodium) plus 2.9 μg GDL per mL CWB, n=4
  Mean Clotting Times: 240.73 ± 29.58 s
[1]; 0.3 Unit LMWH (enoxaparin sodium) plus 10 μg GDL per mL CWB, n=4
  Mean Clotting Times: 294.50 ± 46.16 s
[1]; 0.3 Unit LMWH (enoxaparin sodium) plus 23 μg GDL per mL CWB, n=4
  Mean Clotting Times: 336.28 ± 51.79 s
[1]; 0.3 Unit LMWH (enoxaparin sodium) plus 184 μg GDL per mL CWB, n=4
  Mean Clotting Times: 381.23 ± 61.83 s
[1]; 0.3 Unit LMWH (enoxaparin sodium) plus 1.48 mg GDL per mL CWB, n=4
  Mean Clotting Times: 442.45 ± 63.38 s
[1]; 0.3 Unit LMWH (enoxaparin sodium) plus 11.8 mg GDL per mL CWB, n=4
  Mean Clotting Times: 542.88 ± 54.17 s
[1]; 0.3 Unit UFH plus 2.9 μg GDL per mL CWB, n=5
  Mean Clotting Times: 415.10 ± 101.63 s
[1]; 0.3 Unit UFH plus 10 μg GDL per mL CWB, n=5
  Mean Clotting Times: 498.94 ± 81.24 s
[1]; 0.3 Unit UFH plus 23 μg GDL per mL CWB, n=5
  Mean Clotting Times: 675.34 ± 129.28 s
[1]; 0.3 Unit UFH plus 184 μg GDL per mL CWB, n=5
  Mean Clotting Times: 825.96 ± 160.74 s
[1]; 0.3 Unit UFH plus 1.48 mg GDL per mL CWB, n=5
  Mean Clotting Times: 926.44 ± 192.03 s
[1]; 0.3 Unit UFH plus 11.8 mg GDL per mL CWB, n=5
  Mean Clotting Times: 1197.89 ± 114.32 s
[1]; CWB + GDL, n=9 (GDL 3 mg/ml)
  mean clotting time: 270 s
[1]; CWB + TF + GDL, n=9 (GDL 3 mg/ml)
  mean clotting time: 134 s
[1]; GDL 0.016 mM-66.24 mM
  change of whole blood clotting time over GDL concentration range: increased about three fold
[1]; GDL 3 mg/ml incubated in blood with bacterial endotoxin
  clotting time versus control: significantly (p≦0.05) increase the clotting time
[1]; GDL 4 mg/ml, after four days in the refrigerator (4°), control 177±17
  mean clotting time: 342 ± 32 s
[1]; GDL 4 mg/ml, day 1, n=10, control 250±16
  mean clotting time: 432 ± 16 s
[1]; Study III: 60 ng/ml histamine, 3 mg/ml GDL, n=8
  clotting time: 305 ± 30 s
[1]; Study III: 60 ng/ml histamine, 4 mg/ml GDL, n=8
  clotting time: 325 ± 53 s
[1]; Study IV: 1 μg/ml histamine added first, 1 mg/ml GDL, n=8
  clotting time: 297 ± 113 s
[1]; Study IV: 1 μg/ml histamine added first, 2 mg/ml GDL, n=8
  clotting time: 304 ± 121 s
[1]; blood containing protease 35 μg/ml plus GDL 4 mg/ml
  clotting time: 154 ± 55 s
[1]; blood exposed to tissue factor plus GDL 3 mg/ml, TF alone 101
  clotting time: 134 s
[1]; concentrations greater than 184 μg GDL per mL of blood, n=4, p<0.05
  anticoagulant effect: potent anticoagulant
[1]; trypsin-treated blood plus GDL 6 mg/ml, n=4
  clotting time: 83 ± 19 s
[3]
  stability at room temperature: not susceptible to degradation at room temperatures
[4]; 0.1 mg/ml GDL, control 20±13
  ESR value: 18±14 mm/hr
[4]; 3.0 mg/ml GDL
  ESR value: 16±12 mm/hr
[4]; 6.0 mg/ml GDL
  ESR value: 15±12 mm/hr
[4]; GDL 1 mg/ml alone
  ESR: 9.6 mm
[4]; MC 0.1% plus GDL 1 mg/ml, N=8, p<0.05
  Methylcellulose (MC)-accelerated ESR: 34.6 mm
[4]; MC + GDL (MC 0.1 mg/ml, GDL 1 mg/ml)
  ESR: 30.1 mm
[2]; 11.8 mg GDL per mL CWB, n=16, control 262.63 ± 49.67
  Mean Clotting Times: 631.75 ± 74.55 s
[2]; 0.2 Unit LMWH (dalteparin sodium) plus 11.8 mg GDL per mL CWB, n=16
  Mean Clotting Times: 844.94 ± 77.99 s
[2]; 0.2 Unit UFH plus 11.8 mg GDL per mL CWB, n=16
  Mean Clotting Times: 852.00 ± 80.72 s
plasma
  anticoagulant effect in plasma: a similar anticoagulant effect was observed

## trypsin [reference compound]
[1]; trypsin-treated blood, control 356±47
  clotting time: 49 ± 14 s

B1: TF: Tissue Factor, the initiator of the extrinsic clotting cascade (protein, UniProt P13726 33-295, looked up)
Tissue factor: SGTTNTVAAYNLTWKSTNFKTILEWEPKPVNQVYTVQISTKSGDWKSKCFYTTDTECDLTDEIVKDVKQTYLARVFSYPAGNVESTGSAGEPLYENSPEFTPYLETNLGQPTIQSFEQVGTKVNVTVEDERTLVRRNNTFLSLRDVFGKDLIYTLYYWKSSSSGKKTAKTNTNEFLIDVDKGENYCFSVQAVIPSRTVNRKSTDSPVECMGQEKGEFREIFYIIGAVVFVVIILVIILAISLHKCRKAGVGQSWKENSPLNVS
[1]; 0.2% TF, n=16
  Mean Clotting Times: 100.13 ± 23.10 s
